Where two headings read alike, the source gives them in different places.
Tests used:
[1] = target: PI3K δ (Homo sapiens (Human), UniProt O00329); assay: PI3K δ inhibition assay; assay type: biochemical
Protocol: (§1) IC50 values are measured using either a standard TLC assay for lipid kinase activity (described below) or a high-throughput membrane capture assay. Kinase reactions are performed by preparing a reaction mixture containing kinase, inhibitor (2% DMSO final concentration), buffer (25 mM HEPES, pH 7.4, 10 mM MgCl2), and freshly sonicated phosphatidylinositol (100 μg/ml). Reactions are initiated by the addition of ATP containing 10 μCi of γ-32P-ATP to a final concentration 10 or 100 μM and allowed to proceed for 5 minutes at room temperature. For TLC analysis, reactions are then terminated by the addition of 105 μl 1N HCl followed by 160 μl CHCl3:MeOH (1:1). The biphasic mixture is vortexed, briefly centrifuged, and the organic phase is transferred to a new tube using a gel loading pipette tip precoated with CHCl3. […] The TLC plates are then dried, exposed to a phosphorimager screen (Storm, Amersham), and quantitated.
(§2) Briefly, the assay is a time resolved FRET assay that indirectly measures PIP3 product formed by the activity of a PI3-K. The kinase reaction is performed in a microtitre plate (e.g., a 384 well microtitre plate). The total reaction volume is approximately 20 ul per well. In the first step, each well receives 2 ul of test compound in 20% dimethylsulphoxide resulting in a 2% DMSO final concentration. Next, approximately 14.5 ul of a kinase/PIP2 mixture (diluted in 1× reaction buffer) is added per well for a final concentration of 0.25-0.3 ug/ml kinase and 10 uM PIP2. The plate is sealed and incubated for 15 minutes at room temperature. To start the reaction, 3.5 ul of ATP (diluted in 1× reaction buffer) is added per well for a final concentration of 10 uM ATP. The plate is sealed and incubated for 1 hour at room temperature. The reaction is stopped by adding 5 ul of Stop Solution per well and then 5 ul of Detection Mix is added per well. The plate is sealed, incubated for 1 hour at room temperature, and then read on an appropriate plate reader. Data is analyzed and IC50s are generated using GraphPad Prism 5.

[2] = target: mTORC (Homo sapiens (Human), UniProt P42345); assay: mTOR kinase inhibition assay; assay type: biochemical
Protocol: The compounds described herein can be tested against recombinant mTOR (Invitrogen) in an assay containing 50 mM HEPES, pH 7.5, 1 mM EGTA, 10 mM MgCl2, 2.5 mM, 0.01% Tween, 10 μM ATP (2.5 μCi of p-32P-ATP), and 3 μg/mL BSA. Rat recombinant PHAS-1/4EBP1 (Calbiochem; 2 mg/mL) is used as a substrate. Reactions are terminated by spotting onto nitrocellulose, which is washed with 1M NaCl/1% phosphoric acid (approximately 6 times, 5-10 minutes each). Sheets are dried and the transferred radioactivity quantitated by phosphorimaging.
For instance, one can use Invitrogen's LanthaScreen™ Kinase assay to test the inhibitors of mTOR disclosed herein. This assay is a time resolved FRET platform that measures the phosphorylation of GFP labeled 4EBP1 by mTOR kinase. The kinase reaction is performed in a white 384 well microtitre plate. The total reaction volume is 20 ul per well and the reaction buffer composition is 50 mM HEPES pH7.5, 0.01% Polysorbate 20, 1 mM EGTA, 10 mM MnCl2, and 2 mM DTT. In the first step, each well receives 2 ul of test compound in 20% dimethylsulphoxide resulting in a 2% DMSO final concentration. Next, 8 ul of mTOR diluted in reaction buffer is added per well for a 60 ng/ml final concentration. To start the reaction, 10 ul of an ATP/GFP-4EBP1 mixture (diluted in reaction buffer) is added per well for a final concentration of 10 uM ATP and 0.5 uM GFP-4EBP1. The plate is sealed and incubated for 1 hour at room temperature. […] The plate is sealed, incubated for 1 hour at room temperature, and then read on a plate reader set up for LanthaScreen™ TR-FRET. Data is analyzed and IC50s are generated using GraphPad Prism 5.

[3] = target: PI3K β (Homo sapiens (Human), UniProt P42338); assay: PI3K β inhibition assay; assay type: biochemical
Protocol: as §1, §2

[4] = target: PI3K α (Homo sapiens (Human), UniProt P42336); assay: PI3K α inhibition assay; assay type: biochemical
Protocol: as §1, §2

[5] = target: PI3K γ (Homo sapiens (Human), UniProt P48736); assay: PI3K γ inhibition assay; assay type: biochemical
Protocol: as §1, §2

[6] = test system: PC3; assay: Tumor cell line proliferation assay (Alamar Blue); assay type: cell-based; conditions: Homo sapiens, PC-3
Protocol: The ability of one or more subject compounds to inhibit tumor cell line proliferation is determined according to standard procedures known in the art. For instance, an in vitro cellular proliferation assay can be performed to measure the metabolic activity of live cells. The assay is performed in a 96 well microtiter plate using Alamar Blue reduction. […] A compound disclosed herein is diluted in Tumor Cell Media and added in a 10 ul volume. […] A volume of 10 uL of Alamar Blue reagent is added to each well and plates are incubated for 3 hours at 37 C and 5% CO2. Alamar Blue fluoresce is read at 560Ex/590Em, and IC50 values are calculated using GraphPad Prism 5.

[7] = control compounds, 5 μM; cited from earlier work
[8] = test system: leukemic cells from p190 transduced cultures; conditions: about 70 mg/kg twice daily; cited from earlier work
[9] = PBS pH 7.4, 24 hours, 37 C; cited from earlier work
[10] = test system: PI3K/Akt/mTor signaling; assay: Kinase signaling in blood (phosflow); assay type: cell-based; conditions: anti-CD3 stimulation
Protocol: PI3K/Akt/mTor signaling is measured in blood cells using the phosflow method (Methods Enzymol. 2007; 434:131-54). The advantage of this method is that it is by nature a single cell assay so that cellular heterogeneity can be detected rather than population averages. This allows concurrent dinstinction of signaling states in different populations defined by other markers. Phosflow is also highly quantitative. To test the effects of the inhibitors disclosed herein, unfractionated splenocytes, or peripheral blood mononuclear cells are stimulated with anti-CD3 to initiate T-cell receptor signaling. The cells are then fixed and stained for surface markers and intracellular phosphoproteins.
Similarly, aliquots of whole blood are incubated for 15 minutes with vehicle (e.g. 0.1% DMSO) or kinase inhibitors at various concentrations, before addition of stimuli to crosslink the T cell receptor (TCR) (anti-CD3 with secondary antibody) or the B cell receptor (BCR) using anti-kappa light chain antibody (Fab′2 fragments). After approximately 5 and 15 minutes, samples are fixed (e.g. with cold 4% paraformaldehyde) and used for phosflow. […] The level of phosphrylation of kinase substrates such as Akt and S6 are then measured by incubating the fixed cells with labeled antibodies specific to the phosphorylated isoforms of these proteins. The population of cells are then analyzed by flow cytometery. […]

[11] = test system: B6.Sle1z.Sle3z model; conditions: cited from earlier work

Sequence of PI3K δ (O00329 whole entry): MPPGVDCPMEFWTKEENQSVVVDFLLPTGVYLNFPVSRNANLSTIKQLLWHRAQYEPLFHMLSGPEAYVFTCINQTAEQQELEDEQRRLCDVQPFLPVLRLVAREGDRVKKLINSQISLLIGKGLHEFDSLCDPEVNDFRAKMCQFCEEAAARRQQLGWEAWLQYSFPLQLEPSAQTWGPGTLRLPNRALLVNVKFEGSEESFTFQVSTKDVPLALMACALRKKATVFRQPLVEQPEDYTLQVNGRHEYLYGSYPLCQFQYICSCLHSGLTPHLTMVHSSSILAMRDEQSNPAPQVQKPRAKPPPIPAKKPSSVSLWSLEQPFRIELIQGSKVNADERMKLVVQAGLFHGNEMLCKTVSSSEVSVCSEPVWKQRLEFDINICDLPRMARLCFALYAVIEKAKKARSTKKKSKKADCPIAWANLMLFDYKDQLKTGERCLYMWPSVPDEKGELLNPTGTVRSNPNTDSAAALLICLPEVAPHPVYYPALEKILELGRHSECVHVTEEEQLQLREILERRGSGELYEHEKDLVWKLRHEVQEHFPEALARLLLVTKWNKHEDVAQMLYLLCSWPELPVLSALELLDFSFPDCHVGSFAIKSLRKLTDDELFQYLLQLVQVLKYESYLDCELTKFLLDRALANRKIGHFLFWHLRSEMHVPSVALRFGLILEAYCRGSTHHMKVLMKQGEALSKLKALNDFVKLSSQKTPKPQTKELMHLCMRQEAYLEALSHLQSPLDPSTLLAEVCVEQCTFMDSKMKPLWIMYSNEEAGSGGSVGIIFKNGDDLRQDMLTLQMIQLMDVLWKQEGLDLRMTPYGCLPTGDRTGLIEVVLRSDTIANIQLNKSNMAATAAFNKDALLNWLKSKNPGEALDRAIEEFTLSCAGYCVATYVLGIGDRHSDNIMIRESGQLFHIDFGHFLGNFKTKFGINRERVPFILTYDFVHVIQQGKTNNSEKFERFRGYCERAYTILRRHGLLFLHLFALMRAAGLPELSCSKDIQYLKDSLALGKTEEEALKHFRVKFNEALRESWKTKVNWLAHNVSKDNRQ
Sequence of PI3K δ (P27986 whole entry partner): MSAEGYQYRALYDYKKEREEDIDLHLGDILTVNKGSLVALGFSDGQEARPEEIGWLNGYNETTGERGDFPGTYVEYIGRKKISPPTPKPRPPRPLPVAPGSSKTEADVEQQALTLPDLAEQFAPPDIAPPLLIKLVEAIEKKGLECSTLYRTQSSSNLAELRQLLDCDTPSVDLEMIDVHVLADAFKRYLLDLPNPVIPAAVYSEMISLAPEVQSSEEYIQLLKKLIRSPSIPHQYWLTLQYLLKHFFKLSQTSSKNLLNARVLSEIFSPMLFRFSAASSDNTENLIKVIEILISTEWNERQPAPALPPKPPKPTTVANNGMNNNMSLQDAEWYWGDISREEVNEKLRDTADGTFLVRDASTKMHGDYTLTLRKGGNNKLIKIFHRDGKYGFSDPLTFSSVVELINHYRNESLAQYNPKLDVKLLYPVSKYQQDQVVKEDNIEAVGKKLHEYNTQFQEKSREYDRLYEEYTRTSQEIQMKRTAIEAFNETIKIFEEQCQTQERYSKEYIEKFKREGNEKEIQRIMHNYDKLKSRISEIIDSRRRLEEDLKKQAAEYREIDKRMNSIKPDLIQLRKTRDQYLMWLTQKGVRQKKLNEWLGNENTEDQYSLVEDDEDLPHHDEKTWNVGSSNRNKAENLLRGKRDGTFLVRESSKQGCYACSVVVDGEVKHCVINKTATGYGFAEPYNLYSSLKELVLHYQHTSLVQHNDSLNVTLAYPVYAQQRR
Sequence of PI3K α (P42336 whole entry): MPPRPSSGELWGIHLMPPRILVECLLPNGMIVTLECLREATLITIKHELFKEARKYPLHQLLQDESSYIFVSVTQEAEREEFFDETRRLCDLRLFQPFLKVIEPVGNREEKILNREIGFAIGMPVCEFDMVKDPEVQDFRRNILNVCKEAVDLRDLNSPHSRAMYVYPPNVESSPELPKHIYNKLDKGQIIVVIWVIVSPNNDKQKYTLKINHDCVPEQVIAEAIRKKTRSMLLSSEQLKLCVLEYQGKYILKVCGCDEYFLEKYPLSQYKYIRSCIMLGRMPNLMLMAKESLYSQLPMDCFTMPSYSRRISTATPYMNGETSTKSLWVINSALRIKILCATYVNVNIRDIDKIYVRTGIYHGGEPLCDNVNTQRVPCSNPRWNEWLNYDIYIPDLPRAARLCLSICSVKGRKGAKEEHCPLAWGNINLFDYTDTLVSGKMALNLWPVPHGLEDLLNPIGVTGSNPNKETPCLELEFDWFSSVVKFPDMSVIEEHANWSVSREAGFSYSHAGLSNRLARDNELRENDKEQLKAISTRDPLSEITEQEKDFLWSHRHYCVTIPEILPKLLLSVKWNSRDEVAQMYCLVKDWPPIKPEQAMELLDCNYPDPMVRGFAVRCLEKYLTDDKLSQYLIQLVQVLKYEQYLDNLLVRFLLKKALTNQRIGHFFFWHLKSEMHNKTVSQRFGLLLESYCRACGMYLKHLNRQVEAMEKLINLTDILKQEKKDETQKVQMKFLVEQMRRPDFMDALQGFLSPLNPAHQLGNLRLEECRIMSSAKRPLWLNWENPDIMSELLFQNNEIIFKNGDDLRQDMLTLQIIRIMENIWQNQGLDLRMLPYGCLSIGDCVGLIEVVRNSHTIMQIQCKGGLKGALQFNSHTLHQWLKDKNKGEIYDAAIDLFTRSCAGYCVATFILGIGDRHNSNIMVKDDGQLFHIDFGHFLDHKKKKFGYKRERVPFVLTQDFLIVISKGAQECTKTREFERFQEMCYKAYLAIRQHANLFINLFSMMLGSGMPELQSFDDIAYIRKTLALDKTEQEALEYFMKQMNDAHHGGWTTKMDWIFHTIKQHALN
Sequence of PI3K α (P27986 whole entry partner): as the sequence (P27986 whole entry partner) above
Sequence of PI3K γ (P48736 whole entry): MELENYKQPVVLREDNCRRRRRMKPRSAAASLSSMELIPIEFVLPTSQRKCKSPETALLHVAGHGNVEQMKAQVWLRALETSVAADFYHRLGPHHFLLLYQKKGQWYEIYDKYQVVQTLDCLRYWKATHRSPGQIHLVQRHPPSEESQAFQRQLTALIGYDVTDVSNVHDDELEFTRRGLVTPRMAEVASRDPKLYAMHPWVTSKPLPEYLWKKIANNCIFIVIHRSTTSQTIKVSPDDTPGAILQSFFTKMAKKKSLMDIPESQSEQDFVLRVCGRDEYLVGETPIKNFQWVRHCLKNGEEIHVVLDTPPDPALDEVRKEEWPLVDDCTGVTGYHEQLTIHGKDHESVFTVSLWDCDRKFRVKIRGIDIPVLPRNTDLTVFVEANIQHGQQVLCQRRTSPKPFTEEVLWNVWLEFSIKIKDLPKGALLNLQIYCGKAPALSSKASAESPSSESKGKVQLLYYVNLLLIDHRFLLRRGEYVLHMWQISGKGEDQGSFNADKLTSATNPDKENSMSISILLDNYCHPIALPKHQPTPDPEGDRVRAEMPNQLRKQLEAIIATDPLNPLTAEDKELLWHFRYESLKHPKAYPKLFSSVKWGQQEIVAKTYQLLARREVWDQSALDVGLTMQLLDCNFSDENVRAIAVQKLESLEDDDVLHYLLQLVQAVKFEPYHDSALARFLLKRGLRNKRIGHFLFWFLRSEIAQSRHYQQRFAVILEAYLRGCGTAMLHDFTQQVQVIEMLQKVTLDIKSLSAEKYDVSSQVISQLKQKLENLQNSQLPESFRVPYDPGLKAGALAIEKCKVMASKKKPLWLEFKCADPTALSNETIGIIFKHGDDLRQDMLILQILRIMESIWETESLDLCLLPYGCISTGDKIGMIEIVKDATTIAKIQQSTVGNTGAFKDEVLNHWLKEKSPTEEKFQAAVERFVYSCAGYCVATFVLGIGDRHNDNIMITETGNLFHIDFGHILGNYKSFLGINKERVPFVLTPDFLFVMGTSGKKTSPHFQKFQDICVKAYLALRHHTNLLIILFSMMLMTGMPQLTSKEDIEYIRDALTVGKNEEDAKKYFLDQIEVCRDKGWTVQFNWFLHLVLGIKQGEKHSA
Sequence of PI3K β (P42338 whole entry): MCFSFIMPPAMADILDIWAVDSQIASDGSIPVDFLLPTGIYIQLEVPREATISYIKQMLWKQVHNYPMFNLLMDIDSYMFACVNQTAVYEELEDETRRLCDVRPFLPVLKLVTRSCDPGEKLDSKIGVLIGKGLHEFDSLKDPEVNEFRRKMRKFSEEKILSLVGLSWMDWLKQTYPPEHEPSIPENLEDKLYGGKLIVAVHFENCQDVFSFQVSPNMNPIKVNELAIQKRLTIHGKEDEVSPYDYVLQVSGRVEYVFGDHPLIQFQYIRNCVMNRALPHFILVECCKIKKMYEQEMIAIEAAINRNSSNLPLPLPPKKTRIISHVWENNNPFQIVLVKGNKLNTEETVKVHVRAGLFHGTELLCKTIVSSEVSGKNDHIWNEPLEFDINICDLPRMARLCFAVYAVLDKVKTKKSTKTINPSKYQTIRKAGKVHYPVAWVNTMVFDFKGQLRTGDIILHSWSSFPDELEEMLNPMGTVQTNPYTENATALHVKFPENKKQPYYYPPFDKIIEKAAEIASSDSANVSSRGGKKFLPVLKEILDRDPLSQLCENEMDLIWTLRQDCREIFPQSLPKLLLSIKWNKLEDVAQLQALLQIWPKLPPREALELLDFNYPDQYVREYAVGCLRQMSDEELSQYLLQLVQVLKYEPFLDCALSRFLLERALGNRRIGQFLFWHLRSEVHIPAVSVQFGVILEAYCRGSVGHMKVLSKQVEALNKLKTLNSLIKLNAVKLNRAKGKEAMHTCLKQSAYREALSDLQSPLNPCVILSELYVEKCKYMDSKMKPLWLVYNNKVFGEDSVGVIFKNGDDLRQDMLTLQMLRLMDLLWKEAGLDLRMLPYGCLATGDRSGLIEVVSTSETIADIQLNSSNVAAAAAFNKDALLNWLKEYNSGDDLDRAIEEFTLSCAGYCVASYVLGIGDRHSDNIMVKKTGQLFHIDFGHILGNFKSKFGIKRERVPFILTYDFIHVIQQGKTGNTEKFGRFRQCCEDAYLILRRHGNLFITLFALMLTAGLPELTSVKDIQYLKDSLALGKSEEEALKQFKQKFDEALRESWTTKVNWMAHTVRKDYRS
Sequence of PI3K β (P27986 whole entry partner): as the sequence (P27986 whole entry partner) above

SMILES	IC50 ([1]; Table 1, read-out: PI3K δ IC50) [nM]	IC50 ([2]; Table 1, read-out: mTORC IC50) [nM]	IC50 ([3]; Table 1, read-out: PI3K β IC50) [nM]	IC50 ([4]; Table 1, read-out: PI3K α IC50) [nM]	IC50 ([5]; Table 1, read-out: PI3K γ IC50) [nM]	further results
CNC(=O)Nc1nc2ccc(-c3nn(C4CCN(C(C)=O)CC4)c4ncnc(N)c34)cc2s1 [Compound 23]	–	–	–	–	–	IC50 ([1]; Table 2, compound numbers of Table 3, read-out: IC50 results PI3K delta): ≤ 50 nM; IC50 ([2]; Table 2, compound numbers of Table 3, read-out: IC50 results mTORC): ≤ 50 nM; IC50 ([3]; Table 2, compound numbers of Table 3, read-out: IC50 results PI3K beta): ≤ 100 nM; IC50 ([4]; Table 2, compound numbers of Table 3, read-out: IC50 results PI3K alpha): ≤ 50 nM; IC50 ([5]; Table 2, compound numbers of Table 3, read-out: IC50 results PI3K gamma): ≤ 50 nM; IC50 ([6]; Table 2, compound numbers of Table 3, read-out: IC50 results PC3 proliferation): > 1000 nM
CC(C)[N+](C)(CCOC(=O)C1c2ccccc2Oc2ccccc21)C(C)C [propantheline]	–	–	–	–	–	plasma stability [7]: intermediate plasma stability
CC(C)n1nc(-c2cc3c(Cl)c(O)ccc3[nH]2)c2c(N)ncnc21 [Compound 22]	–	–	–	–	–	IC50 ([6]; Table 1, PC3 cells, read-out: PC3 proliferation): < 500 nM
Cc1ccc(NC(=O)c2ccc(CN3CCN(C)CC3)cc2)cc1Nc1nccc(-c2cccnc2)n1 [imatinib]	–	–	–	–	–	leukemogenesis [8]: delay but not cure leukemogenesis
CCCOc1cc(N)ccc1C(=O)OCCN(CC)CC [propoxycaine]	–	–	–	–	–	plasma stability [7]: low plasma stability
O=C(O)CCCc1ccc(N(CCCl)CCCl)cc1 [chlorambucil]	–	–	–	–	–	chemical stability [9]: largely hydrolyzed over the course of 24 hours
CO[C@H]1C[C@@H]2CC[C@@H](C)[C@@](O)(O2)C(=O)C(=O)N2CCCC[C@H]2C(=O)O[C@H]([C@H](C)C[C@@H]2CC[C@@H](O)[C@H](OC)C2)CC(=O)[C@H](C)/C=C(\C)[C@@H](O)[C@@H](OC)C(=O)[C@H](C)C[C@H](C)/C=C/C=C/C=C/1C [rapamycin]	–	–	–	–	–	Akt phosphorylation [10]: enhances; S6 phosphorylation [10]: inhibits
CC(=O)N1CCC(n2nc(-c3cc4cc(O)cc(Cl)c4[nH]3)c3c(N)ncnc32)CC1 [Compound 70]	< 25	< 5	> 500	< 500	< 100	–
CO[C@H]1C[C@@H]2CC[C@@H](C)[C@@](O)(O2)C(=O)C(=O)N2CCCC[C@H]2C(=O)O[C@H]([C@H](C)C[C@@H]2CC[C@@H](OCCO)[C@H](OC)C2)CC(=O)[C@H](C)/C=C(\C)[C@@H](O)[C@@H](OC)C(=O)[C@H](C)C[C@H](C)/C=C/C=C/C=C/1C [RAD001]	–	–	–	–	–	lupus symptoms [11]: ameliorate lupus symptoms
CC(C)N1CCC(n2nc(-c3cc4cccc(O)c4[nH]3)c3c(N)ncnc32)CC1 [Compound 64]	< 500	< 25	> 500	> 500	< 500	–
Nc1ncnc2c1c(-c1cc3cccc(O)c3[nH]1)nn2C1CCN(C(=O)C2CC2)CC1 [Compound 41]	> 500	< 10	> 500	> 500	< 50	–
Nc1ncnc2c1c(-c1cc3cccc(Cl)c3[nH]1)nn2C1CCOCC1 [Compound 51]	< 500	< 50	> 500	> 500	< 500	–
CN1CCN(C2CC(n3nc(-c4cc5cc(O)ccc5[nH]4)c4c(N)ncnc43)C2)CC1 (stereo not drawn) [Compound 52]	< 500	< 500	> 500	> 500	> 500	–
COc1cccc2cc(-c3nn(C4CCOCC4)c4ncnc(N)c34)[nH]c12 [Compound 63]	< 25	< 5	> 500	< 500	< 25	–
CC(C)N1CCC(n2nc(-c3cc4c(Cl)ccc(O)c4[nH]3)c3c(N)ncnc32)CC1 [Compound 71]	> 500	< 100	> 500	> 500	> 500	–
Nc1ncnc2c1c(-c1cc3cc(O)cc(Cl)c3[nH]1)nn2C1CCOCC1 [Compound 68]	< 25	< 5	> 500	< 500	< 50	–
